Laboratory results from patent US20260248747A1, “PHYSICAL PERFORMANCE AID” (aXichem AB, priority 2023, published 2026).
Values joined by “and” are separate entries in the source; they are usually repeats but may differ in a detail not shown here. Identical values can stand only once. “Also recorded” adds a separate entry of the source.

What was measured:
trained men = details: acute 12 mg capsaicin; squat exercise; cited from earlier work
[1] = 1.2 mg purified capsaicin in gummy format; isokinetic knee extension; cited from earlier work
[2] = high-dose oral encapsulated capsaicin, 25.8 mg; cited from earlier work
resistance trained men [3] = tested on: resistance trained men; parameters: species or system human; details: in vivo, po
resistance trained men [4] = tested on: resistance trained men; parameters: species or system human; details: in vivo
resistance trained men [5] = tested on: resistance trained men; parameters: species or system human; details: in vivo; remark: listed apart in the source
resistance trained men [6] = tested on: resistance trained men; parameters: species or system human; details: in vivo
resistance trained men [7] = tested on: resistance trained men; parameters: species or system human; details: in vivo; remark: listed apart in the source
[8] = tested on: healthy men with resistance training experience; parameters: species or system human; details: in vivo
[9] = tested on: healthy men with resistance training experience; parameters: species or system human; details: in vivo; remark: listed apart in the source
[10] = tested on: healthy men with resistance training experience; parameters: species or system human; details: in vivo; remark: listed apart in the source
[11] = tested on: healthy men with resistance training experience; parameters: species or system human; details: in vivo; remark: listed apart in the source

COc1cc(CNC(=O)CCCC/C=C/C(C)C)ccc1O [capsaicin, 8-methyl-N-vanillyl-trans-6-nonenamide]
number of repetitions until failure (trained men): increased significantly
rated perceived exertion overall body (RPE-OB) (trained men): reduced
total weight lifted (trained men): increased significantly
summed torque or fatigue index [1]: did not reach significant differences
tolerability after oral supplementation [2]: intestinal discomfort

phenylcapsaicyn
Lactate (% change) (resistance trained men [3]): 663.97 ± 352.36% and 653.16 ± 307.31%
percentage of change for urea values, post-hoc Wilcoxon comparison (resistance trained men [4]): significant higher percentage of change for LID compared to PLA
Urea (resistance trained men [4]; po): 40.77 ± 14.17 mg/dL and 37.48 ± 18.18 mg/dL and 29.77 ± 10.67 mg/dL and 30.31 ± 10.41 mg/dL
AST post values, post-hoc Wilcoxon comparison (resistance trained men [5]): significant higher post levels of AST for PLA compared to HD
AST (resistance trained men [5]; po): 17.40 ± 11.25 U/L and 16.37 ± 11.29 U/L and 27.06 ± 14.66 U/L and 22.39 ± 10.86 U/L
AST (% change) (resistance trained men [5]; po): 119.62 ± 166.08% and 110.21 ± 167.16%
60% fastest velocity, post-hoc Bonferroni comparison (resistance trained men [6]): significant differences between LD and PLA
60% fastest-V (resistance trained men [6]): 0.97 ± 0.07 m · s^−1 and 0.96 ± 0.07 m · s^−1
Fastest-V (resistance trained men [6]): 0.87 ± 0.03 m · s^−1 and 0.80 ± 0.06 m · s^−1
Mean-Vt (resistance trained men [6]): 0.61 ± 0.07 m · s^−1 and 0.64 ± 0.07 m · s^−1
Repetitions performed in the protocol (resistance trained men [6]): 24 ± 0.00
Slowest-Vt (resistance trained men [6]): 0.45 ± 0.09 m · s^−1 and 0.49 ± 0.09 m · s^−1
Weight (resistance trained men [6]): 87.69 ± 15.87 kg and 87.57 ± 14.69 kg
maximal velocity loss, post-hoc Bonferroni comparison (resistance trained men [6]): significant differences between HD and LD
mean velocity, post-hoc Bonferroni comparison (resistance trained men [6]): almost was achieved between HD and PLA
PRS, one-way repeated measures ANOVA between conditions (resistance trained men [7]): no differences between conditions
RPE-AM (local RPE in quadriceps), Bonferroni post-hoc comparison (resistance trained men [7]): significant differences
RPE-OB, Bonferroni post-hoc analyses between conditions (resistance trained men [7]): no significant differences
perceived exertion for the active muscle, RPE-AM (resistance trained men [7]): reduced perceived exertion for the active muscle
60% load MDF VLA [8]: 94.20 ± 12.57% and 92.43 ± 15.57% and 87.66 ± 11.86% and 87.61 ± 11.16% and 89.62 ± 12.28% and 94.85 ± 19.89%
60% load MDF VM [8]: 93.24 ± 12.84% and 87.62 ± 9.55% and 88.27 ± 13.74% and 87.29 ± 15.23% and 88.62 ± 16.06% and 84.97 ± 10.64%
60% load RMS VLA [8]: 131.16 ± 36.34% and 144.45 ± 50.27% and 119.38 ± 47.67% and 103.95 ± 49.44% and 149.81 ± 47.00% and 133.16 ± 33.21%
60% load RMS VLA, post-hoc Bonferroni comparison [8]: significant differences between PLA and LID
60% load RMS VM [8]: 131.17 ± 29.13% and 120.88 ± 31.08% and 117.18 ± 19.75% and 112.41 ± 42.15% and 133.87 ± 43.81% and 138.30 ± 47.06%
Isometric MDF VLA [8]: 98.12 ± 9.79% and 99.07 ± 13.42% and 97.78 ± 9.79% and 100.39 ± 12.86%
Isometric MDF VM [8]: 93.75 ± 11.10% and 91.04 ± 14.79% and 97.28 ± 13.72% and 101.88 ± 18.22%
Isometric RMS VLA [8]: 99.88 ± 41.48% and 99.21 ± 50.39% and 126.91 ± 33.50% and 100.25 ± 25.60%
Isometric RMS VM [8]: 120.01 ± 58.48% and 118.65 ± 41.54% and 113.38 ± 24.62% and 102.79 ± 32.43%
Training MDF VLA [8]: 89.90 ± 10.21% and 90.47 ± 12.71% and 88.36 ± 11.03% and 89.99 ± 12.70% and 86.91 ± 9.27% and 89.91 ± 11.39%
Training MDF VM [8]: 85.63 ± 11.87% and 91.01 ± 15.42% and 84.07 ± 11.93% and 90.42 ± 18.35% and 83.74 ± 9.68% and 90.58 ± 15.25%
Training RMS VLA [8]: 123.84 ± 34.86% and 121.24 ± 36.40% and 146.42 ± 47.13% and 119.29 ± 38.40% and 135.14 ± 53.99% and 107.20 ± 42.77%
Training RMS VM [8]: 128.39 ± 50.89% and 111.81 ± 31.90% and 132.39 ± 40.98% and 109.58 ± 36.84% and 138.04 ± 55.37% and 107.44 ± 35.96%
training RMS VM, post-hoc Bonferroni comparison [8]: significant differences were found between HD and LID
CMJ height post values, post-hoc Wilcoxon comparison [9]: significant differences
countermovement jump (CMJ) post and post 24 stages [9]: exhibited higher values
percentage of change in CMJ from pre to post values, post-hoc analyses [9]: did not reach any significant difference
MIF [10]: 1,175.92 ± 370.86 N and 1,182.71 ± 429.84 N and 1,063.035 ± 265.86 N and 1,091.67 ± 331.61 N and 1,084.25 ± 375.82 N and 1,131.50 ± 420.02 N
RFD0-50 [10]: 2,765.42 ± 1,725.44 N · s^1 and 2,544.07 ± 1,150.29 N · s^1 and 2,335.85 ± 1,408.53 N · s^1 and 2,375.33 ± 1,172.75 N · s^1 and 2,006.35 ± 773.62 N · s^1 and 2,190.07 ± 1,249.61 N · s^1
RFD0-100 [10]: 2,921.42 ± 1,353.33 N · s^1 and 2,585.57 ± 1,998.95 N · s^1 and 2,320.43 ± 1,229.46 N · s^1 and 1,968.46 ± 1,373.43 N · s^1 and 2,129.25 ± 942.03 N · s^1 and 2,377.32 ± 1,196.68 N · s^1
RFD0-150 [10]: 2,958.42 ± 1,280.93 N · s^1 and 2,635.67 ± 1,075.21 N · s^1 and 2,388.16 ± 1,184.60 N · s^1 and 2,129.54 ± 1,279.24 N · s^1 and 2,260.47 ± 1,032.89 N · s^1 and 2,450.52 ± 1,275.39 N · s^1
RFD0-200 [10]: 2,697.29 ± 1,219.14 N · s^1 and 2,456.98 ± 1,052.11 N · s^1 and 2,178.30 ± 1,101.08 N · s^1 and 1,973.26 ± 1,214.84 N · s^1 and 2,067.32 ± 978.09 N · s^1 and 2,361.75 ± 1,214.58 N · s^1
RFD0-400 [10]: 1,764.86 ± 898.55 N · s^1 and 1,784.80 ± 809.39 N · s^1 and 1,489.55 ± 733.99 N · s^1 and 1,521.34 ± 853.94 N · s^1 and 1,610.34 ± 773.99 N · s^1 and 1,664.43 ± 912.04 N · s^1
isometric mechanical outcomes (MIF, RFD), two-way repeated measures ANOVAs [10]: no significant differences for any outcome
60% load MFP best [11]: 950.82 ± 170.05 N and 945.34 ± 152.48 N and 907.38 ± 148.53 N and 903.85 ± 155.90 N and 930.60 ± 146.67 N and 936.27 ± 149.32 N
60% load MPP best [11]: 822.00 ± 166.47 W and 810.71 ± 157.90 W and 688.32 ± 166.67 W and 698.67 ± 180.46 W and 796.70 ± 149.05 W and 798.56 ± 170.19 W
60% load MPV best [11]: 0.93 ± 0.06 m/s and 0.80 ± 0.08 m/s and 0.81 ± 0.12 m/s and 0.93 ± 0.09 m/s and 0.91 ± 0.08 m/s
% VL (percentage of velocity loss during a set) [11]: 29.78 ± 10.90% and 26.62 ± 9.37% and 30.91 ± 10.24% and 26.65 ± 11.73% and 34.36 ± 12.15%
MFP mean [11]: 974.60 ± 162.62 N and 962.14 ± 148.59 N and 950.75 ± 161.58 N and 942.66 ± 141.94 N and 941.04 ± 156.67 N and 931.41 ± 141.91 N
MPP Best [11]: 770.42 ± 151.29 W and 744.70 ± 169.44 W and 694.45 ± 160.43 W and 701.32 ± 147.81 W and 681.99 ± 149.20 W and 683.86 ± 141.59 W
MPP mean [11]: 626.70 ± 147.11 W and 612.99 ± 145.84 W and 559.89 ± 128.61 W and 583.27 ± 128.14 W and 539.99 ± 126.34 W and 548.46 ± 135.58 W
MPV best [11]: 0.78 ± 0.05 m/s and 0.79 ± 0.06 m/s and 0.72 ± 0.07 m/s and 0.74 ± 0.07 m/s and 0.71 ± 0.07 m/s and 0.73 ± 0.05 m/s
MPV mean [11]: 0.66 ± 0.07 m/s and 0.68 ± 0.07 m/s and 0.60 ± 0.07 m/s and 0.64 ± 0.08 m/s and 0.58 ± 0.08 m/s and 0.61 ± 0.08 m/s
MPV of individual repetitions, post-hoc Bonferroni [11]: differences between HD and PLA in repetition 23; also recorded: HD and LD in repetitions 15 and 16
Total volume load [11]: 2,014.57 ± 380.94 kg
